{"source": "patent US8629150B2", "about": "“Compounds for the treatment of hepatitis C” (priority 2011, dated 2014)", "system": "HCV pseudoparticles (genotype 1a HCV E1 and E2 envelope, H77C isolate)", "experiment": "HCV pseudoparticle infection assay (luciferase, Huh7 cells)", "type": "cell-based, HCV genotype 1a (H77C isolate)", "details": "HCV pseudoparticle entry into Huh7 cells, luciferase 2 days after infection", "key": {"[1]": {"details": "Hepatitis C virus, Huh-7, 48 h, average of duplicates"}, "[2]": {"details": "Hepatitis C virus, Huh-7, 48 h, class symbol"}}}
{"molecule": "CC1(C)CCNC(=O)c2ccc(cc2)Nc2cc(nc(OCC(F)(F)F)n2)NCc2ccc(cc2)OCCCN1", "note": "[Compound 1001]", "values": [{"measurement": "EC50", "setting": "average of duplicates", "value": 907, "unit": "nM"}, {"measurement": "EC50", "setting": "class symbol", "value": "100 to 1000", "unit": "nM"}]}
{"molecule": "O=C1NCCCOCCCCOCCCNc2cc(nc(OCC(F)(F)F)n2)Nc2ccc1cn2", "note": "[Compound 1002]", "values": [{"measurement": "EC50", "setting": "[1]", "value": 215, "unit": "nM"}, {"measurement": "EC50", "setting": "[2]", "value": "100 to 1000", "unit": "nM"}]}
{"molecule": "CC1(C)CNCCCOc2ccc(cc2)CNc2cc(nc(OCC(F)(F)F)n2)Nc2ccc(cn2)C(=O)NC1", "note": "[Compound 1003]", "values": [{"measurement": "EC50", "setting": "[1]", "value": 0.21, "unit": "nM"}, {"measurement": "EC50", "setting": "[2]", "value": "< 100", "unit": "nM"}]}
{"molecule": "C=C1CNCC(C)(C)CNC(=O)c2ccc(nc2)Nc2cc(nc(OCC(F)(F)F)n2)NCc2ccc(cc2)OC1", "note": "[Compound 1004]", "values": [{"measurement": "EC50", "setting": "[1]", "value": 0.49, "unit": "nM"}, {"measurement": "EC50", "setting": "[2]", "value": "< 100", "unit": "nM"}]}
{"molecule": "CC1CNCC(C)(C)CNC(=O)c2ccc(nc2)Nc2cc(nc(OCC(F)(F)F)n2)NCc2ccc(cc2)OC1", "note": "(centres unmarked) [Compound 1005]", "values": [{"measurement": "EC50", "setting": "[1]", "value": 0.38, "unit": "nM"}, {"measurement": "EC50", "setting": "[2]", "value": "< 100", "unit": "nM"}]}
{"molecule": "C[C@H]1CNCC(C)(C)CNC(=O)c2ccc(nc2)Nc2cc(nc(OCC(F)(F)F)n2)NCc2ccc(cc2)OC1", "note": "[Compound 1006]", "values": [{"measurement": "EC50", "setting": "[1]", "value": 0.45, "unit": "nM"}, {"measurement": "EC50", "setting": "[2]", "value": "< 100", "unit": "nM"}]}
{"molecule": "C[C@@H]1CNCC(C)(C)CNC(=O)c2ccc(nc2)Nc2cc(nc(OCC(F)(F)F)n2)NCc2ccc(cc2)OC1", "note": "[Compound 1007]", "values": [{"measurement": "EC50", "setting": "[1]", "value": 0.19, "unit": "nM"}, {"measurement": "EC50", "setting": "[2]", "value": "< 100", "unit": "nM"}]}
{"molecule": "CC1(C)CNCCCOc2ccc(cc2)CNc2cc(nc(OCC(F)(F)F)n2)Nc2ccc(cc2)C(=O)NC1", "note": "[Example 2001]", "values": [{"measurement": "EC50", "setting": "[1]", "value": 1.34, "unit": "nM"}, {"measurement": "EC50", "setting": "[2]", "value": "< 100", "unit": "nM"}]}
{"molecule": "CC1(C)CNCCCOc2ccc(c(F)c2)CNc2cc(nc(OCC(F)(F)F)n2)Nc2ccc(cc2)C(=O)NC1", "note": "[Example 2002]", "values": [{"measurement": "EC50", "setting": "[1]", "value": 0.81, "unit": "nM"}, {"measurement": "EC50", "setting": "[2]", "value": "< 100", "unit": "nM"}]}
{"molecule": "CC1(C)CNCCCOc2ccc(cc2F)CNc2cc(nc(OCC(F)(F)F)n2)Nc2ccc(cc2)C(=O)NC1", "note": "[Example 2003]", "values": [{"measurement": "EC50", "setting": "[1]", "value": 0.76, "unit": "nM"}, {"measurement": "EC50", "setting": "[2]", "value": "< 100", "unit": "nM"}]}
{"molecule": "O=C1NCC2(CC2)CNCCCOc2ccc(cc2)CNc2cc(nc(OCC(F)(F)F)n2)Nc2ccc1cc2", "note": "[Example 2004]", "values": [{"measurement": "EC50", "setting": "[1]", "value": 396, "unit": "nM"}, {"measurement": "EC50", "setting": "[2]", "value": "100 to 1000", "unit": "nM"}]}
{"molecule": "C[C@H]1CNCCCOc2ccc(cc2)CNc2cc(nc(OCC(F)(F)F)n2)Nc2ccc(cc2)C(=O)NC1", "note": "[Example 2005]", "values": [{"measurement": "EC50", "setting": "[1]", "value": 184, "unit": "nM"}, {"measurement": "EC50", "setting": "[2]", "value": "100 to 1000", "unit": "nM"}]}
{"molecule": "CC1(C)CCNC(=O)c2ccc(cc2)Nc2cc(nc(OCC(F)(F)F)n2)NCc2ccc(cc2)OCCCN1", "note": "[Example 2006]", "values": [{"measurement": "EC50", "setting": "average of duplicates", "value": 326, "unit": "nM"}, {"measurement": "EC50", "setting": "[2]", "value": "100 to 1000", "unit": "nM"}]}
